Experimental data reported in US20050113292A1 (priority 2003, published 2005).
Like-named read-outs stand apart in the source and are kept apart here.

Assays:
[1] = biological target: gp41 of T-tropic HIV-1 R8 virus (HIV-1 (R8)); experiment: cell-based or functional assay
[2] = tested on: M-tropic (BAL) HIV-1; details: for IC50: M-tropic (BAL)
[3] = tested on: HIV-1 mediated cell-cell fusion (R8 virus)
[4] = tested on: R9 HIV-1 virus; assay type: cell-based
[5] = tested on: T-tropic (R8) HIV-1; details: for IC50: T-tropic (R8)
[6] = tested on: HIV-1; assay type: cell-based
[7] = mediated cell-cell fusion (R8 virus)

Compound	IC50 [2] [nM]	IC50 [3, 7] [nM]	IC50 [5] [nM]	also measured
N36 (from UniProt P04578 546-581) (peptide)				IC50, HIV-1 mediated cell-cell fusion (syncytium formation), R8 virus [1]: > 1000 nM
CC[C@H](C)[C@H](NC(=O)CNC(=O)[C@H](Cc1c[nH]c2ccccc12)NC(=O)[C@@H](NC(=O)[C@@H](NC(=O)[C@H](CC(C)C)NC(=O)[C@H](CCC(N)=O)NC(=O)[C@H](CC(C)C)NC(=O)[C@H](CC(C)C)NC(=O)[C@H](Cc1c[nH]cn1)NC(=O)[C@H](CCC(N)=O)NC(=O)[C@H](CCC(N)=O)NC(=O)[C@H](C)NC(=O)[C@H](CCC(=O)O)NC(=O)[C@@H](NC(=O)[C@H](C)NC(=O)[C@H](CCCNC(=N)N)NC(=O)[C@H](CC(C)C)NC(=O)[C@H](CC(C)C)NC(=O)[C@H](CC(N)=O)NC(=O)[C@H](CC(N)=O)NC(=O)[C@H](CCC(N)=O)NC(=O)[C@H](CCC(N)=O)NC(=O)[C@H](CCC(N)=O)NC(=O)[C@@H](NC(=O)[C@@H](NC(=O)CNC(=O)[C@H](CO)NC(=O)[C@@H]1CSC(C(=O)NCCCC[C@H](NC(=O)CCNC(=O)C2N[C@H](C(=O)N[C@@H](CO)C(=O)NCC(=O)N[C@H](C(=O)N[C@H](C(=O)N[C@@H](CCC(N)=O)C(=O)N[C@@H](CCC(N)=O)C(=O)N[C@@H](CCC(N)=O)C(=O)N[C@@H](CC(N)=O)C(=O)N[C@@H](CC(N)=O)C(=O)N[C@@H](CC(C)C)C(=O)N[C@@H](CC(C)C)C(=O)N[C@@H](CCCNC(=N)N)C(=O)N[C@@H](C)C(=O)N[C@H](C(=O)N[C@@H](CCC(=O)O)C(=O)N[C@@H](C)C(=O)N[C@@H](CCC(N)=O)C(=O)N[C@@H](CCC(N)=O)C(=O)N[C@@H](Cc3c[nH]cn3)C(=O)N[C@@H](CC(C)C)C(=O)N[C@@H](CC(C)C)C(=O)N[C@@H](CCC(N)=O)C(=O)N[C@@H](CC(C)C)C(=O)N[C@H](C(=O)N[C@H](C(=O)N[C@@H](Cc3c[nH]c4ccccc34)C(=O)NCC(=O)N[C@H](C(=O)N[C@@H](CCCCN)C(=O)N[C@@H](CCC(N)=O)C(=O)N[C@@H](CC(C)C)C(=O)N[C@@H](CCC(N)=O)C(=O)N[C@@H](C)C(=O)N[C@@H](CCCNC(=N)N)C(=O)N[C@H](C(=O)N[C@@H](CC(C)C)C(=O)O)[C@@H](C)CC)[C@@H](C)CC)C(C)C)[C@@H](C)O)[C@@H](C)CC)C(C)C)[C@@H](C)CC)CS2)C(=O)N[C@@H](CCCCNC(=O)CNC(=O)C2N[C@H](C(=O)N[C@@H](CO)C(=O)NCC(=O)N[C@H](C(=O)N[C@H](C(=O)N[C@@H](CCC(N)=O)C(=O)N[C@@H](CCC(N)=O)C(=O)N[C@@H](CCC(N)=O)C(=O)N[C@@H](CC(N)=O)C(=O)N[C@@H](CC(N)=O)C(=O)N[C@@H](CC(C)C)C(=O)N[C@@H](CC(C)C)C(=O)N[C@@H](CCCNC(=N)N)C(=O)N[C@@H](C)C(=O)N[C@H](C(=O)N[C@@H](CCC(=O)O)C(=O)N[C@@H](C)C(=O)N[C@@H](CCC(N)=O)C(=O)N[C@@H](CCC(N)=O)C(=O)N[C@@H](Cc3c[nH]cn3)C(=O)N[C@@H](CC(C)C)C(=O)N[C@@H](CC(C)C)C(=O)N[C@@H](CCC(N)=O)C(=O)N[C@@H](CC(C)C)C(=O)N[C@H](C(=O)N[C@H](C(=O)N[C@@H](Cc3c[nH]c4ccccc34)C(=O)NCC(=O)N[C@H](C(=O)N[C@@H](CCCCN)C(=O)N[C@@H](CCC(N)=O)C(=O)N[C@@H](CC(C)C)C(=O)N[C@@H](CCC(N)=O)C(=O)N[C@@H](C)C(=O)N[C@@H](CCCNC(=N)N)C(=O)N[C@H](C(=O)N[C@@H](CC(C)C)C(=O)O)[C@@H](C)CC)[C@@H](C)CC)C(C)C)[C@@H](C)O)[C@@H](C)CC)C(C)C)[C@@H](C)CC)CS2)C(=O)N[C@@H](CO)C(=O)N[C@@H](CO)C(=O)N[C@@H](C)C(N)=O)N1)[C@@H](C)CC)C(C)C)[C@@H](C)CC)[C@@H](C)O)C(C)C)C(=O)N[C@@H](CCCCN)C(=O)N[C@@H](CCC(N)=O)C(=O)N[C@@H](CC(C)C)C(=O)N[C@@H](CCC(N)=O)C(=O)N[C@@H](C)C(=O)N[C@@H](CCCNC(=N)N)C(=O)N[C@H](C(=O)N[C@@H](CC(C)C)C(=O)O)[C@@H](C)CC (stereo partly drawn) [Compound 3α-N36]	7.2	39	55.4	percentage of inhibition of cell infection ([4]; 6 μM): around 10%; percentage of inhibition of cell infection ([4]; 200 μM): ~100%
CC[C@H](C)[C@H](NC(=O)[C@H](CC(C)C)NC(=O)[C@H](CO)NC(=O)[C@H](Cc1c[nH]cn1)NC(=O)[C@@H](NC(=O)[C@H](CC(C)C)NC(=O)[C@H](CO)NC(=O)[C@@H](NC(=O)[C@H](Cc1ccc(O)cc1)NC(=O)[C@H](CC(N)=O)NC(=O)[C@H](CC(N)=O)NC(=O)[C@@H](NC(=O)[C@H](CCC(=O)O)NC(=O)[C@H](CCCNC(=N)N)NC(=O)[C@H](CC(=O)O)NC(=O)[C@H](Cc1c[nH]c2ccccc12)NC(=O)[C@H](CCC(=O)O)NC(=O)[C@H](CCSC)NC(=O)[C@@H]1Cc2c([nH]c3ccccc23)C(C(=O)NCCCC[C@H](NC(=O)CCNC(=O)C2N[C@H](C(=O)N[C@@H](CCSC)C(=O)N[C@@H](CCC(=O)O)C(=O)N[C@@H](Cc3c[nH]c4ccccc34)C(=O)N[C@@H](CC(=O)O)C(=O)N[C@@H](CCCNC(=N)N)C(=O)N[C@@H](CCC(=O)O)C(=O)N[C@H](C(=O)N[C@@H](CC(N)=O)C(=O)N[C@@H](CC(N)=O)C(=O)N[C@@H](Cc3ccc(O)cc3)C(=O)N[C@H](C(=O)N[C@@H](CO)C(=O)N[C@@H](CC(C)C)C(=O)N[C@H](C(=O)N[C@@H](Cc3c[nH]cn3)C(=O)N[C@@H](CO)C(=O)N[C@@H](CC(C)C)C(=O)N[C@H](C(=O)N[C@@H](CCC(=O)O)C(=O)N[C@@H](CCC(=O)O)C(=O)N[C@@H](CO)C(=O)N[C@@H](CCC(N)=O)C(=O)N[C@@H](CC(N)=O)C(=O)N[C@@H](CCC(N)=O)C(=O)N[C@@H](CCC(N)=O)C(=O)N[C@@H](CCC(=O)O)C(=O)N[C@@H](CCCCN)C(=O)N[C@@H](CC(N)=O)C(=O)N[C@@H](CCC(=O)O)C(=O)N[C@@H](CCC(N)=O)C(=O)N[C@@H](CCC(=O)O)C(=O)N[C@@H](CC(C)C)C(=O)N[C@@H](CC(C)C)C(=O)O)[C@@H](C)CC)[C@@H](C)CC)[C@@H](C)O)[C@@H](C)CC)Cc3c2[nH]c2ccccc32)C(=O)N[C@@H](CO)C(=O)N[C@@H](CO)C(=O)N[C@@H](C)C(N)=O)N1)[C@@H](C)CC)[C@@H](C)O)[C@@H](C)CC)C(=O)N[C@@H](CCC(=O)O)C(=O)N[C@@H](CCC(=O)O)C(=O)N[C@@H](CO)C(=O)N[C@@H](CCC(N)=O)C(=O)N[C@@H](CC(N)=O)C(=O)N[C@@H](CCC(N)=O)C(=O)N[C@@H](CCC(N)=O)C(=O)N[C@@H](CCC(=O)O)C(=O)N[C@@H](CCCCN)C(=O)N[C@@H](CC(N)=O)C(=O)N[C@@H](CCC(=O)O)C(=O)N[C@@H](CCC(N)=O)C(=O)N[C@@H](CCC(=O)O)C(=O)N[C@@H](CC(C)C)C(=O)N[C@@H](CC(C)C)C(=O)O (stereo partly drawn) [Compound 2α-C34]	0.09	0.47		Neutralization (%) [6]: <5%; fold increase of potency over monomer, BAL virus [2]: 45 fold; fold increase over monomer, cell-cell fusion [3]: 74 fold; EC50 [3, 7]: 0.47 nM; fold increase of potency over monomer, R8 virus [5]: 42 fold
CC(C)C[C@H](NC(=O)[C@H](CO)NC(=O)[C@H](C)NC(=O)[C@H](Cc1c[nH]c2ccccc12)NC(=O)[C@H](CCCCN)NC(=O)[C@H](CC(=O)O)NC(=O)[C@H](CC(C)C)NC(=O)[C@H](CCC(=O)O)NC(=O)[C@H](CC(C)C)NC(=O)[C@@H]1CSC(C(=O)NCCCC[C@H](NC(=O)CCNC(=O)C2N[C@H](C(=O)N[C@@H](CC(C)C)C(=O)N[C@@H](CCC(=O)O)C(=O)N[C@@H](CC(C)C)C(=O)N[C@@H](CC(=O)O)C(=O)N[C@@H](CCCCN)C(=O)N[C@@H](Cc3c[nH]c4ccccc34)C(=O)N[C@@H](C)C(=O)N[C@@H](CO)C(=O)N[C@@H](CC(C)C)C(=O)N[C@@H](Cc3c[nH]c4ccccc34)C(=O)N[C@@H](CC(N)=O)C(=O)N[C@@H](Cc3c[nH]c4ccccc34)C(=O)N[C@@H](Cc3ccccc3)C(=O)O)CS2)C(=O)N[C@@H](CCCCNC(=O)CNC(=O)C2N[C@H](C(=O)N[C@@H](CC(C)C)C(=O)N[C@@H](CCC(=O)O)C(=O)N[C@@H](CC(C)C)C(=O)N[C@@H](CC(=O)O)C(=O)N[C@@H](CCCCN)C(=O)N[C@@H](Cc3c[nH]c4ccccc34)C(=O)N[C@@H](C)C(=O)N[C@@H](CO)C(=O)N[C@@H](CC(C)C)C(=O)N[C@@H](Cc3c[nH]c4ccccc34)C(=O)N[C@@H](CC(N)=O)C(=O)N[C@@H](Cc3c[nH]c4ccccc34)C(=O)N[C@@H](Cc3ccccc3)C(=O)O)CS2)C(=O)N[C@@H](CO)C(=O)N[C@@H](CO)C(=O)N[C@@H](C)C(N)=O)N1)C(=O)N[C@@H](Cc1c[nH]c2ccccc12)C(=O)N[C@@H](CC(N)=O)C(=O)N[C@@H](Cc1c[nH]c2ccccc12)C(=O)N[C@@H](Cc1ccccc1)C(=O)O (stereo partly drawn) [Compound 3α-C13]	430	260	430	
CC(C)C[C@H](NC(=O)[C@H](CO)NC(=O)[C@H](C)NC(=O)[C@H](Cc1c[nH]c2ccccc12)NC(=O)[C@H](CCCCN)NC(=O)[C@H](CC(=O)O)NC(=O)[C@H](CC(C)C)NC(=O)[C@H](CCC(=O)O)NC(=O)[C@H](CC(C)C)NC(=O)[C@@H]1CSC(C(=O)NCCCC[C@H](NC(=O)CCNC(=O)C2N[C@H](C(=O)N[C@@H](CC(C)C)C(=O)N[C@@H](CCC(=O)O)C(=O)N[C@@H](CC(C)C)C(=O)N[C@@H](CC(=O)O)C(=O)N[C@@H](CCCCN)C(=O)N[C@@H](Cc3c[nH]c4ccccc34)C(=O)N[C@@H](C)C(=O)N[C@@H](CO)C(=O)N[C@@H](CC(C)C)C(=O)N[C@@H](Cc3c[nH]c4ccccc34)C(=O)N[C@@H](CC(N)=O)C(=O)N[C@@H](Cc3c[nH]c4ccccc34)C(=O)N[C@@H](Cc3ccccc3)C(=O)O)CS2)C(=O)N[C@@H](CO)C(=O)N[C@@H](CO)C(=O)N[C@@H](C)C(N)=O)N1)C(=O)N[C@@H](Cc1c[nH]c2ccccc12)C(=O)N[C@@H](CC(N)=O)C(=O)N[C@@H](Cc1c[nH]c2ccccc12)C(=O)N[C@@H](Cc1ccccc1)C(=O)O (stereo partly drawn) [Compound 2α-C13]	430	290	310	
